Assay results reported in patent publication US9499547B2 (BAYER INTELLECTUAL PROPERTY GMBH, priority 2011, dated 2016).
Where a name gives a salt, the structure may show the parent alone.

What was measured:
human full-length MKNK1 [1] = target: T1, human full-length MKNK1 (Homo sapiens (Human), UniProt Q9BUB5, T344D); assay: MKNK1 kinase high ATP assay (TR-FRET-based); type: biochemical; conditions: 2 mM ATP final conc.; 15 min preincubation with enzyme
Protocol: MKNK1 Kinase High ATP Assay
MKNK1-inhibitory activity at high ATP of compounds of the present invention after their preincubation with MKNK1 was quantified employing the TR-FRET-based MKNK1 high ATP assay as described in the following paragraphs.
As substrate for the kinase reaction the biotinylated peptide biotin-Ahx-[…] (C-terminus in amide form) was used, which can be purchased e.g. from the company Biosyntan (Berlin-Buch, Germany).
(§1) For the assay 50 nL of a 100 fold concentrated solution of the test compound in DMSO was pipetted into a black low volume 384 well microtiter plate (Greiner Bio-One, Frickenhausen, Germany), 2 μL of a solution of MKNK1 in aqueous assay buffer [50 mM HEPES pH 7.5, 5 mM magnesium chloride, 1.0 mM dithiothreitol, 0.005% (v/v) Nonidet-P40 (Sigma)] was added and the mixture was incubated for 15 min at 22° C. to allow pre-binding of the test compounds to the enzyme before the start of the kinase reaction. Then the kinase reaction was started by the addition of 3 μL of a solution of adenosine-tri-phosphate (ATP, 3.3 mM=>final conc. in the 5 μL assay volume is 2 mM) and substrate (0.1 μM=>final conc. in the 5 μL assay volume is 0.06 μM) in assay buffer and the resulting mixture was incubated for a reaction time of 30 min at 22° C. The concentration of MKNK1 was adjusted depending of the activity of the enzyme lot and was chosen appropriate to have the assay in the linear range, typical concentrations were in the range of 0.003 μg/mL. The reaction was stopped by the addition of 5 μL of a solution of TR-FRET detection reagents (5 nM streptavidine-XL665 [Cisbio Bioassays, Codolet, France] and 1 nM anti-ribosomal protein S6 (pSer236)-antibody from Invitrogen [#44921G] and 1 nM LANCE EU-W1024 labeled ProteinG [Perkin-Elmer, product no. AD0071]) in an aqueous EDTA-solution (100 mM EDTA, 0.1% (w/v) bovine serum albumin in 50 mM HEPES pH 7.5).
(§2) The resulting mixture was incubated for 1 h at 22° C. to allow the formation of complex between the phosphorylated biotinylated peptide and the detection reagents. Subsequently the amount of phosphorylated substrate was evaluated by measurement of the resonance energy transfer from the Eu-chelate to the streptavidine-XL. Therefore, the fluorescence emissions at 620 nm and 665 nm after excitation at 350 nm were measured in a TR-FRET reader, e.g. a Rubystar (BMG Labtechnologies, Offenburg, Germany) or a Viewlux (Perkin-Elmer). The ratio of the emissions at 665 nm and at […] was taken as the measure for the amount of phosphorylated substrate. The data were normalised (enzyme reaction without inhibitor=0% inhibition, all other assay components but no enzyme=100% inhibition).

human full-length MKNK1 [2] = target: T1, human full-length MKNK1; assay: MKNK1 kinase assay (MKNK1 TR-FRET assay); type: biochemical; conditions: 10 μM ATP final conc.; 15 min preincubation with enzyme
Protocol: MKNK1-inhibitory activity of compounds of the present invention was quantified employing the MKNK1 TR-FRET assay as described in the following paragraphs.
As substrate for the kinase reaction the biotinylated peptide biotin-Ahx-[…] (C-terminus in amide form) was used which can be purchased e.g. form the company Biosyntan (Berlin-Buch, Germany).
as §1, with “16.7 μM=>final” for “3.3 mM=>final”, “10 μM)” for “2 mM)”, “45” for “30”, “0.05 μg/ml.” for “0.003 μg/mL.”
as §2

T1 sequence (Q9BUB5 other isoform, or with tags, fused parts or gaps T344D): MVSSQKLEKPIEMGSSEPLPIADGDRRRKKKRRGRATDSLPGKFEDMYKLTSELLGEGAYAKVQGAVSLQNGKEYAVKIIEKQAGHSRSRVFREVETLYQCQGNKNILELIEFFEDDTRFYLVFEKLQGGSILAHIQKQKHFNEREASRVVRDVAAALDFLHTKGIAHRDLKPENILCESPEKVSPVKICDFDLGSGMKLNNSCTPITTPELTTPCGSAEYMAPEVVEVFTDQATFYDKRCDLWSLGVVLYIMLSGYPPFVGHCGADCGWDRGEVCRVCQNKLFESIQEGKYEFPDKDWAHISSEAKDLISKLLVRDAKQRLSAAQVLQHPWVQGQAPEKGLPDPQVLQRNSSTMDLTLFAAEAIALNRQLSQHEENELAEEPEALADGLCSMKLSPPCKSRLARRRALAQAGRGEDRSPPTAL

With `NCCOc1ccc2ncc(-c3cc4ccccc4o3)n2n1` [Example 12, 2-{[3-(1-Benzofuran-2-yl)imidazo[1,2-b]pyridazin-6-yl]oxy}ethanamine] the IC50 (human full-length MKNK1 [1]) was 0.027 µM and the IC50 (human full-length MKNK1 [2]) was 0.01 µM.
`CC(C)(N)CCOc1ccc2ncc(-c3cc4ccccc4o3)n2n1` [Example 14, 4-{[3-(1-Benzofuran-2-yl)imidazo[1,2-b]pyridazin-6-yl]oxy}-2-methylbutan-2-amine] was tested, and the IC50 (human full-length MKNK1 [1]) was 0.039 µM and the IC50 (human full-length MKNK1 [2]) was 0.02 µM.
For `C[C@H](CN)Oc1ccc2ncc(-c3cc4cc(Cl)ccc4o3)n2n1` [Example 15, (2R)-2-{[3-(5-Chloro-1-benzofuran-2-yl)imidazo[1,2-b]pyridazin-6-yl]oxy}-propan-1-amine], the IC50 (human full-length MKNK1 [1]) was 0.197 µM and the IC50 (human full-length MKNK1 [2]) was 0.036 µM.
`NC[C@H](Oc1ccc2ncc(-c3cc4ccccc4o3)n2n1)c1ccccc1` [Example 16, (2R)-2-{[3-(1-Benzofuran-2-yl)imidazo[1,2-b]pyridazin-6-yl]oxy}-2-phenylethanamine] showed an IC50 (human full-length MKNK1 [1]) of 0.049 µM and an IC50 (human full-length MKNK1 [2]) of 0.026 µM.
For `N[C@H](COc1ccc2ncc(-c3cc4ccccc4o3)n2n1)c1ccccc1` [Example 17, (1S)-2-{[3-(1-Benzofuran-2-yl)imidazo[1,2-b]pyridazin-6-yl]oxy}-1-phenylethanamine], the IC50 (human full-length MKNK1 [1]) was 0.01 µM and the IC50 (human full-length MKNK1 [2]) was 0.006 µM.
`N[C@@H](COc1ccc2ncc(-c3cc4ccccc4o3)n2n1)c1ccccc1` [Example 18, (1R)-2-{[3-(1-Benzofuran-2-yl)imidazo[1,2-b]pyridazin-6-yl]oxy}-1-phenylethanamine] showed an IC50 (human full-length MKNK1 [1]) of 0.033 µM and an IC50 (human full-length MKNK1 [2]) of 0.022 µM.
Molecule `N[C@H](COc1ccc2ncc(-c3cc4cc(Cl)ccc4o3)n2n1)c1ccccc1` [Example 19, (1S)-2-{[3-(5-Chloro-1-benzofuran-2-yl)imidazo[1,2-b]pyridazin-6-yl]oxy}-1-phenylethanamine] has an IC50 (human full-length MKNK1 [1]) of 0.111 µM and an IC50 (human full-length MKNK1 [2]) of 0.025 µM.
`NC[C@H]1C[C@H](Oc2ccc3ncc(-c4cc5ccccc5o4)n3n2)C1` [Example 20, 1-(trans-3-{[3-(1-Benzofuran-2-yl)imidazo[1,2-b]pyridazin-6-yl]oxy}cyclobutyl)-methanamine] gave an IC50 (human full-length MKNK1 [1]) of 0.006 µM and an IC50 (human full-length MKNK1 [2]) of 0.004 µM.
In the case of `N[C@H]1C[C@H](COc2ccc3ncc(-c4cc5ccccc5o4)n3n2)C1` [Example 22, trans-3-({[3-(1-Benzofuran-2-yl)imidazo[1,2-b]pyridazin-6-yl]oxy}methyl)cyclobutanamine], the IC50 (human full-length MKNK1 [1]) is reported as 0.017 µM and the IC50 (human full-length MKNK1 [2]) is reported as 0.006 µM.
`N[C@H]1CCC[C@@H]1Oc1ccc2ncc(-c3cc4ccccc4o3)n2n1` [Example 24, (1S,2S)-2-{[3-(1-Benzofuran-2-yl)imidazo[1,2-b]pyridazin-6-yl]oxy}cyclopentanamine] was tested, and the IC50 (human full-length MKNK1 [1]) was 0.019 µM and the IC50 (human full-length MKNK1 [2]) was 0.01 µM.
Molecule `N[C@H]1CCC[C@H]1Oc1ccc2ncc(-c3cc4ccccc4o3)n2n1` [Example 25, (1S,2R)-2-{[3-(1-Benzofuran-2-yl)imidazo[1,2-b]pyridazin-6-yl]oxy}cyclopentanamine salt with formic acid] has an IC50 (human full-length MKNK1 [1]) of 0.022 µM and an IC50 (human full-length MKNK1 [2]) of 0.007 µM.
For `NCC(Cc1ccccc1)Oc1ccc2ncc(-c3cc4ccccc4o3)n2n1` (centres unmarked) [Example 26, 2-{[3-(1-Benzofuran-2-yl)imidazo[1,2-b]pyridazin-6-yl]oxy}-3-phenylpropan-1-amine salt with formic acid], the IC50 (human full-length MKNK1 [1]) was 0.025 µM and the IC50 (human full-length MKNK1 [2]) was 0.015 µM.
`CC(C)(N)COc1ccc2ncc(-c3cc4ccccc4o3)n2n1` [Example 29, 1-{[3-(1-Benzofuran-2-yl)imidazo[1,2-b]pyridazin-6-yl]oxy}-2-methylpropan-2-amine] was tested, and the IC50 (human full-length MKNK1 [1]) was 0.059 µM and the IC50 (human full-length MKNK1 [2]) was 0.017 µM.
In the case of `NCC(Oc1ccc2ncc(-c3cc4ccccc4o3)n2n1)C1CC1` (centres unmarked) [Example 30, 2-{[3-(1-Benzofuran-2-yl)imidazo[1,2-b]pyridazin-6-yl]oxy}-2-cyclopropylethanamine], the IC50 (human full-length MKNK1 [1]) is reported as 0.075 µM and the IC50 (human full-length MKNK1 [2]) is reported as 0.041 µM.
For `NCC(CN)Oc1ccc2ncc(-c3cc4ccccc4o3)n2n1` [Example 34, 2-{[3-(1-Benzofuran-2-yl)imidazo[1,2-b]pyridazin-6-yl]oxy}propane-1,3-diamine], the IC50 (human full-length MKNK1 [1]) was 0.092 µM and the IC50 (human full-length MKNK1 [2]) was 0.039 µM.
`NCC(Oc1ccc2ncc(-c3cc4ccccc4o3)n2n1)C1CCOC1` (centres unmarked) [Example 35, 2-{[3-(1-Benzofuran-2-yl)imidazo[1,2-b]pyridazin-6-yl]oxy}-2-(tetrahydrofuran-3-yl)ethanamine] was tested, and the IC50 (human full-length MKNK1 [1]) was 0.052 µM and the IC50 (human full-length MKNK1 [2]) was 0.032 µM.
Molecule `N[C@H]1C[C@H](Oc2ccc3ncc(-c4cc5c(F)cccc5o4)n3n2)C1` [Example 36, trans-3-{[3-(4-Fluoro-1-benzofuran-2-yl)imidazo[1,2-b]pyridazin-6-yl]oxy}-cyclobutanamine] has an IC50 (human full-length MKNK1 [1]) of 0.002 µM and an IC50 (human full-length MKNK1 [2]) of 0.001 µM.
With `N[C@H]1C[C@H](Oc2ccc3ncc(-c4cc5cc(Cl)ccc5o4)n3n2)C1` [Example 37, trans-3-{[3-(5-Chloro-1-benzofuran-2-yl)imidazo[1,2-b]pyridazin-6-yl]oxy}-cyclobutanamine] the IC50 (human full-length MKNK1 [1]) was 0.005 µM and the IC50 (human full-length MKNK1 [2]) was 0.004 µM.
`COc1ccc2oc(-c3cnc4ccc(O[C@H]5C[C@H](N)C5)nn34)cc2c1` [Example 38, trans-3-{[3-(5-Methoxy-1-benzofuran-2-yl)imidazo[1,2-b]pyridazin-6-yl]oxy}-cyclobutanamine] showed an IC50 (human full-length MKNK1 [1]) of 0.006 µM and an IC50 (human full-length MKNK1 [2]) of 0.003 µM.
In the case of `N[C@H]1C[C@H](Oc2ccc3ncc(-c4cc5cc(F)ccc5o4)n3n2)C1` [Example 39, trans-3-{[3-(5-Fluoro-1-benzofuran-2-yl)imidazo[1,2-b]pyridazin-6-yl]oxy}-cyclobutanamine], the IC50 (human full-length MKNK1 [1]) is reported as 0.006 µM and the IC50 (human full-length MKNK1 [2]) is reported as 0.003 µM.
`CC(CN)COc1ccc2ncc(-c3cc4ccccc4o3)n2n1` (centres unmarked) [Example 40, 3-{[3-(1-Benzofuran-2-yl)imidazo[1,2-b]pyridazin-6-yl]oxy}-2-methylpropan-1-amine] gave an IC50 (human full-length MKNK1 [1]) of 0.018 µM and an IC50 (human full-length MKNK1 [2]) of 0.009 µM.
Work on `COc1cccc2oc(-c3cnc4ccc(OCC(N)C5CC5)nn34)cc12` (centres unmarked) [Example 41, 1-Cyclopropyl-2-{[3-(4-methoxy-1-benzofuran-2-yl)imidazo[1,2-b]pyridazin-6-yl]oxy}ethanamine] yielded an IC50 (human full-length MKNK1 [1]) of 0.027 µM and an IC50 (human full-length MKNK1 [2]) of 0.012 µM.
For `C[C@@H](N)COc1ccc2ncc(-c3cc4ccccc4o3)n2n1` [Example 42, (2R)-1-{[3-(1-Benzofuran-2-yl)imidazo[1,2-b]pyridazin-6-yl]oxy}propan-2-amine], the IC50 (human full-length MKNK1 [1]) was 0.043 µM and the IC50 (human full-length MKNK1 [2]) was 0.015 µM.
`C[C@@H](N)COc1ccc2ncc(-c3cc4cc(Cl)ccc4o3)n2n1` [Example 43, (2R)-1-{[3-(5-Chloro-1-benzofuran-2-yl)imidazo[1,2-b]pyridazin-6-yl]oxy}-propan-2-amine] gave an IC50 (human full-length MKNK1 [1]) of 0.062 µM and an IC50 (human full-length MKNK1 [2]) of 0.033 µM.
`NCC1(COc2ccc3ncc(-c4cc5ccccc5o4)n3n2)COC1` [Example 44, 1-[3-({[3-(1-Benzofuran-2-yl)imidazo[1,2-b]pyridazin-6-yl]oxy}methyl)oxetan-3-yl]methanamine] was tested, and the IC50 (human full-length MKNK1 [1]) was 0.063 µM and the IC50 (human full-length MKNK1 [2]) was 0.052 µM.
